Source: patent US8716297B2, “Chemical entities to be used for Wee1 inhibition for the treatment of cancer” (AbbVie Inc., priority 2011, dated 2014)

molecular target: T1, GST-tagged-Wee1 kinase (Homo sapiens, UniProt P30291); assay: Wee1 time-resolved fluorescence equilibrium binding assay (displacement of Oregon Green-labeled ATP-competitive probe); details: TR-FRET probe displacement; 2 nM GST-Wee1, 300 nM probe, 1 hour incubation; read-out: Wee-1 binding (Ki nM)
T1 construct: purchased Carnabio 05-177
T1 sequence (P30291 whole entry): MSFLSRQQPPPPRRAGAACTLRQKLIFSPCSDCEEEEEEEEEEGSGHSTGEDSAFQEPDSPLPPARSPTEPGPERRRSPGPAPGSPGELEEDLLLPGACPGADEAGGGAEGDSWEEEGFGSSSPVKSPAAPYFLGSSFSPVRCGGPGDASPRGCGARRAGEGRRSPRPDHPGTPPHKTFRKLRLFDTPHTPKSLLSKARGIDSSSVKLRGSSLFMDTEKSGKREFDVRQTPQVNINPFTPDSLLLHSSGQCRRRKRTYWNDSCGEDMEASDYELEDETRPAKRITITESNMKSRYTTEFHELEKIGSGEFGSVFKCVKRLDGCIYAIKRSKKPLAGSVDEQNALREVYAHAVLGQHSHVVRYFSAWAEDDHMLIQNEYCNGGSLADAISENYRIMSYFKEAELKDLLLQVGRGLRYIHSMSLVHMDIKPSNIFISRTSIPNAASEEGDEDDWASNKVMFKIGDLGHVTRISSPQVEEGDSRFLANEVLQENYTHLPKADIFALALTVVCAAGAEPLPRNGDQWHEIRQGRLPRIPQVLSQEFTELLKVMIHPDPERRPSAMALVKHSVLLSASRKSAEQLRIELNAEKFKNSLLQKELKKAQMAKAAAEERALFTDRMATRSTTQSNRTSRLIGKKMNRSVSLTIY
Method: Wee1 kinase was assayed using a time-resolved fluorescence equilibrium binding assay monitoring displacement of a rapidly reversible Oregon Green-labeled ATP-competitive kinase probe (N-(2-(2-(2-(4-(4-(5-chloro-4-(2-(1-hydroxycyclobutyl)thiazol-5-yl)-1H-pyrrolo[2,3-b]pyridin-2-yl)phenyl)piperazin-1-yl)ethoxy)ethoxy)ethyl)-2′,7′-difluoro-3′,6′-dihydroxy-3-oxo-3H-spiro[isobenzofuran-1,9′-xanthene]-5-carboxamide) by competitive Wee1 inhibitors.

Ki [nM]	Structure (SMILES)
1.8	C=CCN1c2ccccc2-c2nc(Nc3ccc(N4CCN(C)CC4)cc3)ncc2S1(=O)=O [Example 1, 6-allyl-N-[4-(4-methylpiperazin-1-yl)phenyl]-6H-pyrimido[5,4-c][2,1]benzothiazin-2-amine 5,5-dioxide]
1.7	C/C=C/N1c2ccccc2-c2nc(Nc3ccc(N4CCN(C)CC4)cc3)ncc2S1(=O)=O [Example 2, N-[4-(4-methylpiperazin-1-yl)phenyl]-6-[(1E)-prop-1-en-1-yl]-6H-pyrimido[5,4-c][2,1]benzothiazin-2-amine 5,5-dioxide]
9	C=CCN1c2ccccc2-c2nc(Nc3ccc4c(c3)N(C(C)=O)CC4)ncc2S1(=O)=O [Example 5, 1-{6-[(6-allyl-5,5-dioxido-6H-pyrimido[5,4-c][2,1]benzothiazin-2-yl)amino]-2,3-dihydro-1H-indol-1-yl}ethanone]
106	C=CCN1c2ccccc2-c2nc(Nc3ccc4c(c3)N(C)CCC4)ncc2S1(=O)=O [Example 8, 6-allyl-N-(1-methyl-1,2,3,4-tetrahydroquinolin-7-yl)-6H-pyrimido[5,4-c][2,1]benzothiazin-2-amine 5,5-dioxide]
50	C=CCN1c2ccccc2-c2nc(Nc3ccc(N4CCC(C)CC4)cc3)ncc2S1(=O)=O [Example 9, 6-allyl-N-[4-(4-methylpiperidin-1-yl)phenyl]-6H-pyrimido[5,4-c][2,1]benzothiazin-2-amine 5,5-dioxide]
5	C=CCN1c2ccccc2-c2nc(Nc3ccc(N4CCN(C(C)=O)CC4)cc3)ncc2S1(=O)=O [Example 10, 1-(4-{4-[(6-allyl-5,5-dioxido-6H-pyrimido[5,4-c][2,1]benzothiazin-2-yl)amino]phenyl}piperazin-1-yl)ethanone]
31	C=CCN1c2ccccc2-c2nc(Nc3ccc(N4CCCCC4)cc3)ncc2S1(=O)=O [Example 11, 6-allyl-N-[4-(piperidin-1-yl)phenyl]-6H-pyrimido[5,4-c][2,1]benzothiazin-2-amine 5,5-dioxide]
738	C=CCN1c2ccccc2-c2nc(Nc3ccccc3N3CCN(C)CC3)ncc2S1(=O)=O [Example 12, 6-allyl-N-[2-(4-methylpiperazin-1-yl)phenyl]-6H-pyrimido[5,4-c][2,1]benzothiazin-2-amine 5,5-dioxide]
166	C=CCN1c2ccccc2-c2nc(Nc3ccc(N4CCN(C)CC4)cc3OC)ncc2S1(=O)=O [Example 15, 6-allyl-N-[2-methoxy-4-(4-methylpiperazin-1-yl)phenyl]-6H-pyrimido[5,4-c][2,1]benzothiazin-2-amine 5,5-dioxide]
7	C=CCN1c2ccccc2-c2nc(Nc3ccc(N4CCOCC4)cc3)ncc2S1(=O)=O [Example 16, 6-allyl-N-[4-(morpholin-4-yl)phenyl]-6H-pyrimido[5,4-c][2,1]benzothiazin-2-amine 5,5-dioxide]
4	C=CCN1c2ccccc2-c2nc(Nc3cccc(N4CCN(C)CC4)c3)ncc2S1(=O)=O [Example 18, 6-allyl-N-[3-(4-methylpiperazin-1-yl)phenyl]-6H-pyrimido[5,4-c][2,1]benzothiazin-2-amine 5,5-dioxide]
1.2	C=CCN1c2ccccc2-c2nc(Nc3ccc(C4CCN(C)CC4)cc3)ncc2S1(=O)=O [Example 19, 6-allyl-N-[4-(1-methylpiperidin-4-yl)phenyl]-6H-pyrimido[5,4-c][2,1]benzothiazin-2-amine 5,5-dioxide]
220	C=CCN1c2ccccc2-c2nc(Nc3ccccc3)ncc2S1(=O)=O [Example 24, 6-allyl-N-phenyl-6H-pyrimido[5,4-c][2,1]benzothiazin-2-amine 5,5-dioxide]
1.5	C=CCN1c2ccccc2-c2nc(Nc3ccc(N4CCNCC4)cc3)ncc2S1(=O)=O [Example 25, 6-allyl-N-[4-(piperazin-1-yl)phenyl]-6H-pyrimido[5,4-c][2,1]benzothiazin-2-amine 5,5-dioxide]
1.1	C=CCN1c2ccccc2-c2nc(Nc3ccc4c(c3)CN(C)CC43CC3)ncc2S1(=O)=O [Example 28, 6-allyl-N-(2′-methyl-2′,3′-dihydro-1′H-spiro[cyclopropane-1,4′-isoquinolin]-7′-yl)-6H-pyrimido[5,4-c][2,1]benzothiazin-2-amine 5,5-dioxide]

Second part, the compound before the results:

Structure (SMILES)	Ki [nM]
C=CCN1c2ccccc2-c2nc(Nc3ccc(OCCN(CC)CC)cc3)ncc2S1(=O)=O [Example 3, 6-allyl-N-{4-[2-(diethylamino)ethoxy]phenyl}-6H-pyrimido[5,4-c][2,1]benzothiazin-2-amine 5,5-dioxide]	4.8
C=CCN1c2ccccc2-c2nc(Nc3ccc4c(c3)NC(=O)CO4)ncc2S1(=O)=O [Example 6, 6-[(6-allyl-5,5-dioxido-6H-pyrimido[5,4-c][2,1]benzothiazin-2-yl)amino]-2H-1,4-benzoxazin-3(4H)-one]	47
C=CCN1c2ccccc2-c2nc(Nc3ccc(-c4ccncc4)cc3)ncc2S1(=O)=O [Example 7, 6-allyl-N-[4-(pyridin-4-yl)phenyl]-6H-pyrimido[5,4-c][2,1]benzothiazin-2-amine 5,5-dioxide]	1230
C=CCN1c2ccccc2-c2nc(Nc3ccc(C4CCCCC4)cc3)ncc2S1(=O)=O [Example 13, 6-allyl-N-(4-cyclohexylphenyl)-6H-pyrimido[5,4-c][2,1]benzothiazin-2-amine 5,5-dioxide]	2080
C=CCN1c2ccccc2-c2nc(Nc3ccc(-c4nc5cnccc5[nH]4)cc3)ncc2S1(=O)=O [Example 14, 6-allyl-N-[4-(1H-imidazo[4,5-c]pyridin-2-yl)phenyl]-6H-pyrimido[5,4-c][2,1]benzothiazin-2-amine 5,5-dioxide]	1440
C=CCN1c2ccccc2-c2nc(Nc3ccc4c(c3)CCCC4)ncc2S1(=O)=O [Example 17, 6-allyl-N-(5,6,7,8-tetrahydronaphthalen-2-yl)-6H-pyrimido[5,4-c][2,1]benzothiazin-2-amine 5,5-dioxide]	2040
C=CCN1c2ccccc2-c2nc(Nc3ccc(-c4nc5ccccc5[nH]4)cc3)ncc2S1(=O)=O [Example 20, 6-allyl-N-[4-(1H-benzimidazol-2-yl)phenyl]-6H-pyrimido[5,4-c][2,1]benzothiazin-2-amine 5,5-dioxide]	283
C=CCN1c2ccccc2-c2nc(Nc3ccc4c(c3)CN(C)CC4(C)C)ncc2S1(=O)=O [Example 22, 6-allyl-N-(2,4,4-trimethyl-1,2,3,4-tetrahydroisoquinolin-7-yl)-6H-pyrimido[5,4-c][2,1]benzothiazin-2-amine 5,5-dioxide]	1.7
C=CCN1c2ccccc2-c2nc(Nc3ccc4c(c3)CNCC4)ncc2S1(=O)=O [Example 26, 6-allyl-N-(1,2,3,4-tetrahydroisoquinolin-7-yl)-6H-pyrimdio[5,4-c][2,1]benzothiazin-2-amine 5,5-dioxide]	1
C=CCN1c2ccccc2-c2nc(Nc3ccncc3)ncc2S1(=O)=O [Example 27, 6-allyl-N-(pyridin-4-yl)-6H-pyrimido[5,4-c][2,1]benzothiazin-2-amine 5,5-dioxide]	30
C=CCN1c2ccccc2-c2nc(N)ncc2S1(=O)=O [Example 29, 6-allyl-6H-pyrimido[5,4-c][2,1]benzothiazin-2-amine 5,5-dioxide]	413
C=CCN1c2ccccc2-c2nc(Nc3ccc4c(c3)NCCC4)ncc2S1(=O)=O [Example 30, 6-allyl-N-(1,2,3,4-tetrahydroquinolin-7-yl)-6H-pyrimido[5,4-c][2,1]benzothiazin-2-amine 5,5-dioxide]	21
